Measurements as given in US4962024A, “Signal enhancement in assay for an enzyme” (priority 1988, dated 1990).
Structures can show the parent of a compound that is named as a salt. Where two headings read alike, the source gives them in different places.

Target: acetyl cholinesterase (AChE) (Homo sapiens, UniProt P22303)
Assay: Inhibition constants: inhibition of acetyl cholinesterase (AChE), acetyl thiocholine and Ellman's reagent
Assay type: biochemical
Procedure: Inhibition constants were measured in 50 mM Tris pH=8.0. Enzyme and inhibitor were incubated at ambient temperature for 20 minutes. Substrate for the enzyme was then added and the rate of hydrolysis was followed spectrophotometrically. The substrate for PLE and RLE was o-nitrophenylbutyrate and for AChE was acetyl thiocholine and Ellman's reagent.

Sequence of acetyl cholinesterase (AChE) (P22303 32-614): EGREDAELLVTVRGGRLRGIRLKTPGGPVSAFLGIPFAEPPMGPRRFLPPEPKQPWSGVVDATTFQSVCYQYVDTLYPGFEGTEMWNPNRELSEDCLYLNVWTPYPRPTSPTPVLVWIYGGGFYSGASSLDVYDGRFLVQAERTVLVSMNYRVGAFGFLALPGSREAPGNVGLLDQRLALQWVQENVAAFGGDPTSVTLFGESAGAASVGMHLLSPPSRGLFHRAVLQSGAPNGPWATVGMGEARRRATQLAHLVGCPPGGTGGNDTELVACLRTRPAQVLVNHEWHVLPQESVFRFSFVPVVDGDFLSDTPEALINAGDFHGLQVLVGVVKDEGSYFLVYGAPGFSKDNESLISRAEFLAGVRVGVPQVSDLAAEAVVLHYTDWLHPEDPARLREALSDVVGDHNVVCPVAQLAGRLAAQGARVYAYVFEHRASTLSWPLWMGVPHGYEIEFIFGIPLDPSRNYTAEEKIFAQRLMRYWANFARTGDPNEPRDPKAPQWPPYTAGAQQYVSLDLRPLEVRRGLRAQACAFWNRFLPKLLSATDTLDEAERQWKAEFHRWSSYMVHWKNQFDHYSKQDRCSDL

## C[N+](C)(CCO)CCCC(=O)C(F)(F)F [N,N-dimethyl-N-[2-(hydroxy)ethyl]-5,5,5-trifluoro-4-oxopentanaminium, hydroxide salt]
AChE, 50 mM Tris pH=8.0, 20 minutes incubation at ambient temperature, acetyl thiocholine and Ellman's reagent, read-out: Ki (M)* (Esterase)
  Ki: 5e-09 M

## C[N+](C)(CCCCO)CCCC(=O)C(F)(F)F [N,N-dimethyl-N-[4-(hydroxy)butyl] 5,5,5-trifluoro-4-oxopentanaminium, hydroxide salt]
  Ki: 6.5e-08 M
